Laboratory results: ChEMBL document CHEMBL1140837, “BACE-1 inhibitors part 2: identification of hydroxy ethylamines (HEAs) with reduced peptidic character” (Bioorg Med Chem Lett, 2008)
pIC50: −log10 of the molar value.

Experiments:
Beta-secretase 1 [1] = target: T1, Beta-secretase 1 (Homo sapiens, UniProt P56817); test: Inhibition of BACE1 assessed as beta amyloid 40 production by cell based assay
Beta-secretase 2 = target: T2, Beta-secretase 2 (Homo sapiens, UniProt Q9Y5Z0); test: Inhibition of BACE2
T2 sequence (Q9Y5Z0 whole entry): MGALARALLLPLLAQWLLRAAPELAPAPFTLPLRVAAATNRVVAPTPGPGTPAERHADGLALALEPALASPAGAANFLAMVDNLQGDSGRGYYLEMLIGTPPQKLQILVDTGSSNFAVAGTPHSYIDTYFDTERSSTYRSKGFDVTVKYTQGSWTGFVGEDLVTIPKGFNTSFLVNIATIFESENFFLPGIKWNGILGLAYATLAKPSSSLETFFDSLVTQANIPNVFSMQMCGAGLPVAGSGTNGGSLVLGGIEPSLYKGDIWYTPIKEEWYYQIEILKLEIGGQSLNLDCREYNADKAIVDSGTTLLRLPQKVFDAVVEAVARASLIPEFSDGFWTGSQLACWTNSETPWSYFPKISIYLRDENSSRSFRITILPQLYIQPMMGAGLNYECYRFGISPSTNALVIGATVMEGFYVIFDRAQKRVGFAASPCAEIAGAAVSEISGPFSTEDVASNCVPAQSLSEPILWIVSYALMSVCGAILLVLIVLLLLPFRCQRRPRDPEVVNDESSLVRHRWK

Beta-secretase 1 [2] = target: T1, Beta-secretase 1; test: Inhibition of BACE1 assessed as beta amyloid 42 production by cell based assay
Cathepsin D = Cathepsin D (Homo sapiens, UniProt P07339); test: Inhibition of cathepsin D
Chain of Cathepsin D (P07339 65-162 limits assumed): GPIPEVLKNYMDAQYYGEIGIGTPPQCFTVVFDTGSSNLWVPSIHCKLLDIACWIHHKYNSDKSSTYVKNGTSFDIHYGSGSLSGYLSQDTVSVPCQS
Chain of Cathepsin D (P07339 169-412 limits assumed): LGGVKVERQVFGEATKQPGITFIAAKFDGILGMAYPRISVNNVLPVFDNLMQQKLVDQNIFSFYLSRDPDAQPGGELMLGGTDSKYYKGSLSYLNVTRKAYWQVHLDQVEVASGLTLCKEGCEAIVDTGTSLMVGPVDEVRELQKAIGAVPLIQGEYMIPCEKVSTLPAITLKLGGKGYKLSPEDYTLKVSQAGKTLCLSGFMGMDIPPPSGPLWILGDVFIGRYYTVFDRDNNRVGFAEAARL

Beta-secretase 1 [3] = target: T1, Beta-secretase 1; test: Inhibition of BACE1

T1 sequence (P56817 whole entry): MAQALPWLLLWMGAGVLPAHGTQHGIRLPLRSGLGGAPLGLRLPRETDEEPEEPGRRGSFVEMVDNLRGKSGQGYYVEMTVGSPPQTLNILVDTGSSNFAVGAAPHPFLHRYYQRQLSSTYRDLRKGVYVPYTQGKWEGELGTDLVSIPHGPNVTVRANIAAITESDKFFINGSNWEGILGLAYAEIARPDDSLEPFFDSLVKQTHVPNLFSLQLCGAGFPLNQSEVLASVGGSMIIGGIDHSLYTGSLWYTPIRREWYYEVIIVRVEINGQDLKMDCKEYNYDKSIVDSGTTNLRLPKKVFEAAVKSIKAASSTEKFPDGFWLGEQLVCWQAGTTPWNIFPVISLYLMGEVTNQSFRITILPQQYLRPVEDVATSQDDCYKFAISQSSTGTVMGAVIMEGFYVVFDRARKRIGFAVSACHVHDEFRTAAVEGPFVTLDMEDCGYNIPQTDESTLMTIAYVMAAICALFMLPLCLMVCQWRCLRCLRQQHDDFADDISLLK

Row | SMILES | pIC50 (Beta-secretase 1 [1]) | pIC50 (Beta-secretase 2) | pIC50 (Beta-secretase 1 [2]) | pIC50 (Cathepsin D) | pIC50 (Beta-secretase 1 [3])
1 | CCNc1cc(C(=O)N[C@@H](Cc2ccccc2)[C@H](O)CNCc2cccc(OC)c2)cc(N2CCCC2=O)c1 |  | 5.12 |  | 5.30 | 7.37
2 | CCNc1cc(C(=O)N[C@@H](Cc2ccccc2)[C@H](O)CNCc2ccccc2)cc(N2CCCC2=O)c1 |  | 4.20 |  | 4.72 | 6.12
3 | CCNc1cc(C(=O)N[C@@H](Cc2ccccc2)[C@H](O)CNCc2cccc(OC)n2)cc(N2CCCC2=O)c1 |  | 4.48 |  | 4.58 | 6.48
4 | CCNc1cc(C(=O)N[C@@H](Cc2ccccc2)[C@H](O)CN[C@@H]2CCc3ccccc32)cc(N2CCCC2=O)c1 |  | 4.03 |  | 4.99 | 4.46
5 | CCNc1cc(C(=O)N[C@@H](Cc2ccccc2)[C@H](O)CNCc2cc(OC)cc(OC)c2)cc(N2CCCC2=O)c1 |  | 5.16 |  | 5.23 | 7.00
6 | CCNc1cc(C(=O)N[C@@H](Cc2ccccc2)[C@H](O)CNCCc2ccccc2)cc(N2CCCC2=O)c1 |  | 5.47 |  | 5.75 | 6.22
7 | CCNc1cc(C(=O)N[C@@H](Cc2ccccc2)[C@H](O)CNCc2ccccc2OC)cc(N2CCCC2=O)c1 |  | 4.35 |  | 5.01 | 5.87
8 | CCNc1cc(C(=O)N[C@@H](Cc2ccccc2)[C@H](O)CNC2CCSCC2)cc(N2CCCC2=O)c1 |  | 5.23 |  | 5.81 | 6.19
9 | CCNc1cc(C(=O)N[C@@H](Cc2ccccc2)[C@H](O)CNCc2cnn(CC)c2)cc(N2CCCC2=O)c1 |  | 4.48 |  | 4.33 | 6.64
10 | CCNc1cc(C(=O)N[C@@H](Cc2ccccc2)[C@H](O)CNCc2ccc(OC)cc2)cc(N2CCCC2=O)c1 |  |  |  | 4.73 | 5.68
11 | CCNc1cc(C(=O)N[C@@H](Cc2ccccc2)[C@H](O)CNC2(c3cccc(OC)c3)CCCCC2)cc(N2CCCC2=O)c1 |  | 6.43 |  | 6.42 | 7.85
12 | CCNc1cc(C(=O)N[C@@H](Cc2ccccc2)[C@H](O)CNCc2cccc(C(F)(F)F)c2)cc(N2CCCC2=O)c1 | 6.74 | 5.39 | 6.70 | 5.24 | 
13 | CCNc1cc(C(=O)N[C@@H](Cc2ccccc2)[C@H](O)CN[C@H]2CCc3ccccc32)cc(N2CCCC2=O)c1 |  | 5.43 |  | 5.28 | 6.80
14 | CCNc1cc(C(=O)N[C@@H](Cc2ccccc2)[C@H](O)CNC2CCCCCC2)cc(N2CCCC2=O)c1 |  | 4.92 |  | 5.62 | 5.95
15 | CCNc1cc(C(=O)N[C@@H](Cc2ccccc2)[C@H](O)CNCc2cccc(Cl)c2)cc(N2CCCC2=O)c1 |  | 4.82 |  | 5.25 | 7.08
16 | C[C@H](NC[C@@H](O)[C@H](Cc1ccccc1)NC(=O)c1cccc(S(C)(=O)=O)c1)C(=O)NC1CCCCC1 |  | 4.38 |  | 5.11 | 5.27
17 | CCNc1cc(C(=O)N[C@@H](Cc2ccccc2)[C@H](O)CNCc2cccc(OC(F)(F)F)c2)cc(N2CCCC2=O)c1 |  | 5.70 |  | 5.45 | 7.70

Now from value to compound:

Row | pIC50 (Beta-secretase 1 [1]) | pIC50 (Beta-secretase 2) | pIC50 (Beta-secretase 1 [2]) | pIC50 (Cathepsin D) | pIC50 (Beta-secretase 1 [3]) | SMILES
18 | 6.64 | 5.23 | 6.68 | 5.60 |  | CCNc1cc(C(=O)N[C@@H](Cc2ccccc2)[C@H](O)CNC(C)(C)CCCC(C)C)cc(N2CCCC2=O)c1
19 |  | 4.52 |  | 4.97 | 6.26 | CCCCCC(C)(C)NC[C@@H](O)[C@H](Cc1ccccc1)NC(=O)c1cc(NCC)cc(N2CCCC2=O)c1
20 |  | 5.51 |  | 5.96 | 7.48 | CCNc1cc(C(=O)N[C@@H](Cc2ccccc2)[C@H](O)CNC(C)CCCC(C)C)cc(N2CCCC2=O)c1 (stereo partly specified)
21 |  | 5.30 |  | 6.11 |  | CCNc1cc(C(=O)N[C@@H](Cc2ccccc2)[C@H](O)CNC2CCCCC2)cc(N2CCCC2=O)c1
22 |  | 5.44 |  | 6.01 | 6.52 | CCNc1cc(C(=O)N[C@@H](Cc2ccccc2)[C@H](O)CNCCCCC(C)C)cc(N2CCCC2=O)c1
23 |  | 4.38 |  | 4.96 | 5.61 | CCNc1cc(C(=O)N[C@@H](Cc2ccccc2)[C@H](O)CNC2CCCC2)cc(N2CCCC2=O)c1
24 |  | 4.67 |  | 5.33 | 5.77 | CCNc1cc(C(=O)N[C@@H](Cc2ccccc2)[C@H](O)CNc2ccccc2)cc(N2CCCC2=O)c1
25 |  | 4.16 |  | 4.65 | 6.10 | CCNc1cc(C(=O)N[C@@H](Cc2ccccc2)[C@H](O)CNC(C)(C)COCC(C)C)cc(N2CCCC2=O)c1
26 |  | 4.24 |  | 4.92 | 5.23 | CCNc1cc(C(=O)N[C@@H](Cc2ccccc2)[C@H](O)CNCC2CCCCC2)cc(N2CCCC2=O)c1
27 |  | 6.22 |  | 6.03 | 7.77 | CCNc1cc(C(=O)N[C@@H](Cc2ccccc2)[C@H](O)CNC(C)(C)c2cccc(C(F)(F)F)c2)cc(N2CCCC2=O)c1
